Measurements from the supplement of paper PMC10883282.
± gives the standard deviation of the averaged measurements.

Columns and labels:
Test in all cases: relative viability vs DMSO control (72 h) (fraction); higher = more viable cells
HT1080 = tested on: HT1080
Summary of the method: (§1)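 After seeding at densities set for 80–90% confluence in 384-well plates, sarcoma cell lines waited 24 h before 2.5 µl of serially diluted compound was added. Source plates held 10 mM down to 0.0002 mM. Plates were incubated 72 h at 37 °C with 5% CO2, with 0.1% DMSO vehicle and a 5 µM positive control, and relative viability was taken from ATPLite as percent growth averaged over up to triplicate wells, with 1 set as full and 0 as none.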

SW872 = tested on: SW872
Summary of the method: as §1

SK-LMS-1 = tested on: SK-LMS-1
Summary of the method: as §1

KHOS-NP = tested on: KHOS-NP
Summary of the method: as §1

HS729 = tested on: HS729
Summary of the method: as §1

SK-ES-1 = tested on: SK-ES-1
Summary of the method: as §1

A204 = tested on: A204
Summary of the method: as §1

VA-ES-BJ = tested on: VA-ES-BJ
Summary of the method: as §1

SW684 = tested on: SW684
Summary of the method: as §1

G401 = tested on: G401
Summary of the method: as §1

SW982 = tested on: SW982
Summary of the method: as §1

RD-ES = tested on: RD-ES
Summary of the method: as §1

NC(=O)c1cccc2cn(-c3ccc([C@@H]4CCCNC4)cc3)nc12 [Niraparib]
Details | relative viability
A204, 0.00017 µM | 1.07 ± 0.025
A204, 0.00051 µM | 1.09 ± 0.032
A204, 0.00152 µM | 1.05 ± 0.046
A204, 0.00457 µM | 1.07 ± 0.094
A204, 0.01372 µM | 1.05 ± 0.06
A204, 0.04115 µM | 1.07 ± 0.043
A204, 0.1235 µM | 1.064 ± 0.0098
A204, 0.3704 µM | 0.998 ± 0.046
A204, 1.111 µM | 0.964 ± 0.022
A204, 3.333 µM | 0.885 ± 0.022
A204, 10 µM | 0.691 ± 0.019
G401, 0.00017 µM | 0.962 ± 0.048
G401, 0.00051 µM | 0.988 ± 0.049
G401, 0.00152 µM | 1.01 ± 0.058
G401, 0.00457 µM | 0.9908 ± 0.0078
G401, 0.01372 µM | 0.993 ± 0.051
G401, 0.04115 µM | 1.03 ± 0.042
G401, 0.1235 µM | 0.967 ± 0.031
G401, 0.3704 µM | 0.97 ± 0.048
G401, 1.111 µM | 0.93 ± 0.049
G401, 3.333 µM | 0.929 ± 0.011
G401, 10 µM | 0.852 ± 0.052
HS729, 0.00017 µM | 0.876 ± 0.051
HS729, 0.00051 µM | 0.894 ± 0.043
HS729, 0.00152 µM | 0.893 ± 0.016
HS729, 0.00457 µM | 0.89 ± 0.027
HS729, 0.01372 µM | 0.886 ± 0.01
HS729, 0.04115 µM | 0.869 ± 0.054
HS729, 0.1235 µM | 0.917 ± 0.082
HS729, 0.3704 µM | 0.868 ± 0.031
HS729, 1.111 µM | 0.884 ± 0.011
HS729, 3.333 µM | 0.877 ± 0.024
HS729, 10 µM | 0.801 ± 0.02
HT1080, 0.00017 µM | 1.06 ± 0.023
HT1080, 0.00051 µM | 1.05 ± 0.021
HT1080, 0.00152 µM | 1.01 ± 0.023
HT1080, 0.00457 µM | 1.04 ± 0.02
HT1080, 0.01372 µM | 1.01 ± 0.048
HT1080, 0.04115 µM | 1.01 ± 0.027
HT1080, 0.1235 µM | 1.041 ± 0.007
HT1080, 0.3704 µM | 1.02 ± 0.013
HT1080, 1.111 µM | 1.09 ± 0.025
HT1080, 3.333 µM | 1.09 ± 0.025
HT1080, 10 µM | 1.03 ± 0.042
KHOS-NP, 0.00017 µM | 1.05 ± 0.03
KHOS-NP, 0.00051 µM | 1.04 ± 0.034
KHOS-NP, 0.00152 µM | 1.04 ± 0.031
KHOS-NP, 0.00457 µM | 1.06 ± 0.027
KHOS-NP, 0.01372 µM | 1.045 ± 0.0046
KHOS-NP, 0.04115 µM | 1.04 ± 0.024
KHOS-NP, 0.1235 µM | 1.06 ± 0.025
KHOS-NP, 0.3704 µM | 1.08 ± 0.039
KHOS-NP, 1.111 µM | 1.05 ± 0.056
KHOS-NP, 3.333 µM | 1.079 ± 0.0049
KHOS-NP, 10 µM | 1.04 ± 0.028
RD-ES, 0.00017 µM | 0.997 ± 0.026
RD-ES, 0.00051 µM | 1.01 ± 0.053
RD-ES, 0.00152 µM | 0.9697 ± 0.0067
RD-ES, 0.00457 µM | 0.988 ± 0.055
RD-ES, 0.01372 µM | 0.966 ± 0.05
RD-ES, 0.04115 µM | 0.966 ± 0.037
RD-ES, 0.1235 µM | 0.962 ± 0.011
RD-ES, 0.3704 µM | 0.899 ± 0.048
RD-ES, 1.111 µM | 0.783 ± 0.038
RD-ES, 3.333 µM | 0.504 ± 0.024
RD-ES, 10 µM | 0.0364 ± 0.00095
SK-ES-1, 0.00017 µM | 1.02 ± 0.049
SK-ES-1, 0.00051 µM | 1.02 ± 0.046
SK-ES-1, 0.00152 µM | 1.01 ± 0.0073
SK-ES-1, 0.00457 µM | 1.01 ± 0.07
SK-ES-1, 0.01372 µM | 1.02 ± 0.047
SK-ES-1, 0.04115 µM | 0.975 ± 0.066
SK-ES-1, 0.1235 µM | 0.8976 ± 0.0068
SK-ES-1, 0.3704 µM | 0.822 ± 0.025
SK-ES-1, 1.111 µM | 0.525 ± 0.1
SK-ES-1, 3.333 µM | 0.311 ± 0.04
SK-ES-1, 10 µM | 0.0804 ± 0.003
SK-LMS-1, 0.00017 µM | 1.08 ± 0.017
SK-LMS-1, 0.00051 µM | 1.12 ± 0.05
SK-LMS-1, 0.00152 µM | 1.1 ± 0.013
SK-LMS-1, 0.00457 µM | 1.12 ± 0.036
SK-LMS-1, 0.01372 µM | 1.12 ± 0.041
SK-LMS-1, 0.04115 µM | 1.13 ± 0.077
SK-LMS-1, 0.1235 µM | 1.12 ± 0.037
SK-LMS-1, 0.3704 µM | 1.1 ± 0.022
SK-LMS-1, 1.111 µM | 1.09 ± 0.059
SK-LMS-1, 3.333 µM | 1.03 ± 0.029
SK-LMS-1, 10 µM | 0.966 ± 0.049
SW684, 0.00017 µM | 1.14 ± 0.068
SW684, 0.00051 µM | 1.15 ± 0.028
SW684, 0.00152 µM | 1.17 ± 0.028
SW684, 0.00457 µM | 1.13 ± 0.062
SW684, 0.01372 µM | 1.09 ± 0.024
SW684, 0.04115 µM | 1.13 ± 0.033
SW684, 0.1235 µM | 1.14 ± 0.04
SW684, 0.3704 µM | 1.1 ± 0.11
SW684, 1.111 µM | 1.13 ± 0.025
SW684, 3.333 µM | 1.17 ± 0.05
SW684, 10 µM | 1.09 ± 0.052
SW872, 0.00017 µM | 1.02 ± 0.069
SW872, 0.00051 µM | 1.04 ± 0.065
SW872, 0.00152 µM | 1.03 ± 0.046
SW872, 0.00457 µM | 1.04 ± 0.069
SW872, 0.01372 µM | 0.997 ± 0.073
SW872, 0.04115 µM | 1.01 ± 0.07
SW872, 0.1235 µM | 1.05 ± 0.036
SW872, 0.3704 µM | 1.07 ± 0.082
SW872, 1.111 µM | 1.06 ± 0.059
SW872, 3.333 µM | 1.07 ± 0.048
SW872, 10 µM | 1.02 ± 0.058
SW982, 0.00017 µM | 1.05 ± 0.032
SW982, 0.00051 µM | 1.04 ± 0.042
SW982, 0.00152 µM | 1.05 ± 0.037
SW982, 0.00457 µM | 1.02 ± 0.019
SW982, 0.01372 µM | 1.06 ± 0.03
SW982, 0.04115 µM | 1.07 ± 0.022
SW982, 0.1235 µM | 1.06 ± 0.016
SW982, 0.3704 µM | 1.01 ± 0.044
SW982, 1.111 µM | 0.926 ± 0.033
SW982, 3.333 µM | 0.791 ± 0.0091
SW982, 10 µM | 0.635 ± 0.022
VA-ES-BJ, 0.00017 µM | 0.985 ± 0.038
VA-ES-BJ, 0.00051 µM | 0.995 ± 0.056
VA-ES-BJ, 0.00152 µM | 0.976 ± 0.035
VA-ES-BJ, 0.00457 µM | 0.96 ± 0.039
VA-ES-BJ, 0.01372 µM | 0.99 ± 0.041
VA-ES-BJ, 0.04115 µM | 1.01 ± 0.047
VA-ES-BJ, 0.1235 µM | 0.983 ± 0.036
VA-ES-BJ, 0.3704 µM | 0.947 ± 0.032
VA-ES-BJ, 1.111 µM | 0.915 ± 0.056
VA-ES-BJ, 3.333 µM | 0.873 ± 0.072
VA-ES-BJ, 10 µM | 0.708 ± 0.11
